The values below come from ChEMBL document CHEMBL4834480, “Discovery of 3,5-Dimethyl-4-Sulfonyl-1H-Pyrrole-Based Myeloid Cell Leukemia 1 Inhibitors with High Affinity, Selectivity, and Oral Bioavailability” (J Med Chem, 2021).

Data set [1] can be described thus: Permeability of the compound at pH 7.4 measured after 4 hrs by PAMPA assay. Type of data set: ADME. To be noted: read-out: permeability.
Data set [2] addresses Apoptosis regulator Bcl-2 (Homo sapiens, UniProt P10415). Kind of data set: Inhibition of FITC-labeled Bak BH3 peptide binding to GST-tagged BCL2 (1 to 205 residues) (unknown origin) expressed in Escherichia coli BL21 (DE3) at 10 uM incubated for 30 mins fluorescence polarization-based competitive binding assay relative to control.
The target of data set [3] is Induced myeloid leukemia cell differentiation protein Mcl-1 (Homo sapiens, UniProt Q07820). The data set can be described thus: Displacement of BAK from MCL1 in human NCI-H929 cells after 4 hrs by co-immunoprecipitation assay. Type of data set: cell-based. The conditions noted are these: dose 0.1-0.5 µM.
Data set [4] in a line: Stability of the compound in human plasma assessed as parent compound remaining measured after 2 hrs by LC-MS/MS analysis. Type of data set: ADME, cell-free. To be noted: read-out: Stabilty.
A short description of data set [5]: Half life in rat liver microsomes. Type of data set: ADME, Microsome.
Data set [6] concerns the target T1, P-gp (Homo sapiens, UniProt P08183). The data set can be described thus: Substrate activity at P-gp in human Caco-2 cells assessed as permeability across apical to basolateral membrane by LC-MS/MS analysis. The class given is ADME, cell-based. The conditions noted are these: read-out: permeability.
The target in data set [7] is T1, P-gp. The data set can be described thus: Substrate activity at P-gp in human Caco-2 cells assessed as efflux ratio of permeability by LC-MS/MS analysis. The class given is ADME, cell-based.
The nature of data set [8]: Clearance in Sprague-Dawley rat at 3 mg/kg, iv measured up to 24 hrs by LC-MS/MS analysis. The class given is ADME, organism-based. The conditions noted are these: in vivo.
Data set [9] can be described thus: Toxicity in BALB/c nude mouse xenografted with human MV4-11 cells assessed as effect on liver weight at 60 mg/kg, po administered every two days for 14 days. The class given is organism-based. The conditions noted are these: in vivo, 336 h, time 14 day.
The subject of another data set is MV4-11. Kind of data set: Antitumor activity against human MV4-11 cells xenografted in BALB/c nude mouse assessed as induction of tumor necrosis at 60 mg/kg, po administered every two days for 14 days by hematoxyin-eosin staining based analysis. To be noted: time 14.0 day. Type of data set: functional, organism-based.

The source made the active and inactive calls. The rule behind the calls is not given here.

T1 sequence (P08183 whole entry): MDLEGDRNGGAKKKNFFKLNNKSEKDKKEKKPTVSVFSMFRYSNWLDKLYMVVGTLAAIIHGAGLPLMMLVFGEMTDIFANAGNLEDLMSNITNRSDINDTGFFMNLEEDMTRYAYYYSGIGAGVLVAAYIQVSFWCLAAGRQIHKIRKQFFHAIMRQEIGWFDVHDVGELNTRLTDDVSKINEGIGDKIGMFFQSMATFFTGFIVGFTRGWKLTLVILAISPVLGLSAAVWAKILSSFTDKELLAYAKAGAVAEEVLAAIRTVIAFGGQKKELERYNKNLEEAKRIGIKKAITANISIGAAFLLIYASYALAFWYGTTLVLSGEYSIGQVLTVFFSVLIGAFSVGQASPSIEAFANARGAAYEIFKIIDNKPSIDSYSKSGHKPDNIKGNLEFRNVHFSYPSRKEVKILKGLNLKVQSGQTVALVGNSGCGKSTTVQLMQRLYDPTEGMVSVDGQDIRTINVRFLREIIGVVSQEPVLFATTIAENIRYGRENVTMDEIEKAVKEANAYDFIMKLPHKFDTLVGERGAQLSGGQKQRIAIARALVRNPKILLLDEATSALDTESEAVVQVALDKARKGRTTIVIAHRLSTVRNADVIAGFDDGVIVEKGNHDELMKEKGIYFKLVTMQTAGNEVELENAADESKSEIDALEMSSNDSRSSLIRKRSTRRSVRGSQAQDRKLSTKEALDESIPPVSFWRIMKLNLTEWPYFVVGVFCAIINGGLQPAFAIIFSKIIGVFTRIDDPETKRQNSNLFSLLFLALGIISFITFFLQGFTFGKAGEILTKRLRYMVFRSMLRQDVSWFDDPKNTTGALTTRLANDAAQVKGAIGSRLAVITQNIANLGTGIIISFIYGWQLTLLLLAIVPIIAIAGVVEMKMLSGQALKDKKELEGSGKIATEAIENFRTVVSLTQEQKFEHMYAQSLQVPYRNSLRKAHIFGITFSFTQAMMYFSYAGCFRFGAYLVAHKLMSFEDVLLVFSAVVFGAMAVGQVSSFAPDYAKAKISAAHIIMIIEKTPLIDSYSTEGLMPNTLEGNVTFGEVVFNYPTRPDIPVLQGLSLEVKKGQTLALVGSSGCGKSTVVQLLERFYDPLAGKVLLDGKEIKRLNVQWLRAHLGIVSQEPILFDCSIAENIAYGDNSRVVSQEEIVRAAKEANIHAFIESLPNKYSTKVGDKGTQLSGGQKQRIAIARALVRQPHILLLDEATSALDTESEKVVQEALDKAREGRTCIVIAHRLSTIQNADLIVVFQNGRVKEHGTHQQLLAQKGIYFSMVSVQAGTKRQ
Sequence of Apoptosis regulator Bcl-2 (P10415 whole entry, the tested form may be a part): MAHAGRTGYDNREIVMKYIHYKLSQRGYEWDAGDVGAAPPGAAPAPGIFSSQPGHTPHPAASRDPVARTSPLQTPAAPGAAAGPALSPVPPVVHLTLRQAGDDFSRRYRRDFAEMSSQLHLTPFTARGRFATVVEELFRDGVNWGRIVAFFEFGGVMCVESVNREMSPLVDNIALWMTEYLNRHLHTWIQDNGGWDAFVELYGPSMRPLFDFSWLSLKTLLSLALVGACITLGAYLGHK
Sequence of Induced myeloid leukemia cell differentiation protein Mcl-1 (Q07820 whole entry): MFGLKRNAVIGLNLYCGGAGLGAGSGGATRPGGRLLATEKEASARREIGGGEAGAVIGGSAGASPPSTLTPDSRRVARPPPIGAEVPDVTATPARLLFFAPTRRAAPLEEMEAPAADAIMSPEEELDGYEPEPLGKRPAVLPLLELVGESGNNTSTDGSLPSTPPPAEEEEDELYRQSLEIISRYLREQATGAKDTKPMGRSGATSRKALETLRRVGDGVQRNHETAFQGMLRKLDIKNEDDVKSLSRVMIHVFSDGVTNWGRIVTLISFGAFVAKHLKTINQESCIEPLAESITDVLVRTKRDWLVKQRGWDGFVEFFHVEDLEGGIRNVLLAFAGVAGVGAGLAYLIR

In the case of `CC(=O)c1ccc(S(=O)(=O)c2c(C)c(C(=O)O)n(CCCOc3cc(C)c(Cl)c(C)c3)c2C)cc1`, the Papp at 4 h in data set [1] stood at 52.6 ×10⁻⁶ cm/s. The inhibition in data set [2] is 10%; in data set [3] it was “Dose-Dependent Effect”. The remaining at 2 h in [4] stood at 96.5%. In data set [5], this compound showed a half-life of 45 min. The Papp A→B on P-gp [6] came out at 3.62 ×10⁻⁶ cm/s. For the same compound, the efflux ratio on P-gp [7] stood at 0.1. In data set [8], this compound displayed a clearance of 15.2 mL/min/kg. The Activity entry in data set [9] is given as “Non-Toxic”. Also, the outcome in the data set on MV4-11 was Active.
